# Measurements from PubChem BioAssay AID1053167 (Broad Institute, 2014).
# Values joined by “and” are separate entries in the source; they are usually repeats but may differ in a detail not shown here. Equal entries are not always repeated. Active and inactive are the calls of the source. How the calls were made is not given here.
# Test system: Vaccinia virus infected cells, plate reader read-out
# Experiment: Vaccinia virus infected cells, stage specific inhibitors, dose response, confirmatory, dry powder (AID 1053167)
# Details: not given
row,Compound,AC50
1,C[C@H](O)C#Cc1ccc2c(c1)O[C@H](CN(C)Cc1ccc(-c3ccccc3)cc1)[C@@H](C)CN([C@H](C)CO)S2(=O)=O,> 20000 nM (inactive)
2,C[C@H]1CN([C@@H](C)CO)S(=O)(=O)c2ccc(C#CC(C)(C)O)cc2O[C@H]1CN(C)Cc1ccc(-c2ccccc2)cc1,> 20000 nM (inactive)
3,Cc1cccc(-c2ccc(CN(C)C[C@@H]3Oc4cc(C#C[C@@H](C)O)ccc4S(=O)(=O)N([C@@H](C)CO)C[C@@H]3C)cc2)c1,1740 nM
4,COc1ccc(-c2ccc(CN(C)C[C@@H]3Oc4cc(C#C[C@@H](C)O)ccc4S(=O)(=O)N([C@@H](C)CO)C[C@@H]3C)cc2)cc1,2200 nM
5,C[C@@H]1CN([C@H](C)CO)S(=O)(=O)c2ccc(C#C[C@@H](C)O)cc2O[C@H]1CN(C)Cc1ccc(-c2ccccc2)cc1,7160 nM
6,Cc1ccc(-c2ccc(CN(C)C[C@@H]3Oc4cc(C#C[C@@H](C)O)ccc4S(=O)(=O)N([C@@H](C)CO)C[C@@H]3C)cc2)cc1,1480 nM
7,C[C@@H]1CN([C@@H](C)CO)S(=O)(=O)c2ccc(C#C[C@@H](C)O)cc2O[C@@H]1CN(C)Cc1ccc(-c2ccccc2)cc1,> 20000 nM (inactive)
8,C[C@@H](O)C#Cc1ccc2c(c1)O[C@@H](CN(C)Cc1ccc(-c3cccc(Cl)c3)cc1)[C@@H](C)CN([C@@H](C)CO)S2(=O)=O,2560 nM
9,C[C@H]1CN([C@@H](C)CO)S(=O)(=O)c2ccc(-c3ccc(O)cc3)cc2O[C@H]1CN(C)Cc1ccc(-c2ccccc2)cc1,> 20000 nM (inactive)
10,C[C@H](O)C#Cc1ccc2c(c1)O[C@@H](CN(C)Cc1ccc(-c3ccccc3)cc1)[C@H](C)CN([C@H](C)CO)S2(=O)=O,> 20000 nM (inactive)
11,C[C@@H](O)C#Cc1ccc2c(c1)O[C@@H](CN(C)Cc1ccccc1)[C@@H](C)CN([C@@H](C)CO)S2(=O)=O,8730 nM
12,C[C@@H](O)C#Cc1ccc2c(c1)O[C@@H](CN(C)Cc1ccc(-c3ccc(Cl)cc3)cc1)[C@@H](C)CN([C@@H](C)CO)S2(=O)=O,1210 nM
13,C[C@@H](O)C#Cc1ccc2c(c1)O[C@@H](CN(C)Cc1ccc(-c3ccccc3Cl)cc1)[C@@H](C)CN([C@@H](C)CO)S2(=O)=O,1340 nM
14,COc1ccc(-c2ccc3c(c2)O[C@@H](CN(C)Cc2ccc(-c4ccccc4)cc2)[C@@H](C)CN([C@@H](C)CO)S3(=O)=O)cc1,> 20000 nM (inactive)
15,C[C@@H](O)C#Cc1ccc2c(c1)O[C@@H](CN(C)Cc1ccc(-c3ccccc3)cc1)[C@@H](C)CN([C@@H](C)CO)S2(=O)=O,2940 nM and 3900 nM
16,C[C@H](O)C#Cc1ccc2c(c1)O[C@H](CN(C)Cc1ccc(-c3ccccc3)cc1)[C@H](C)CN([C@H](C)CO)S2(=O)=O,> 20000 nM (inactive)
17,COc1cccc(-c2ccc(CN(C)C[C@@H]3Oc4cc(C#C[C@@H](C)O)ccc4S(=O)(=O)N([C@@H](C)CO)C[C@@H]3C)cc2)c1,2770 nM
18,C[C@H](O)C#Cc1ccc2c(c1)O[C@H](CN(C)Cc1ccc(-c3ccccc3)cc1)[C@@H](C)CN([C@@H](C)CO)S2(=O)=O,5700 nM
19,COc1ccccc1-c1ccc(CN(C)C[C@@H]2Oc3cc(C#C[C@@H](C)O)ccc3S(=O)(=O)N([C@@H](C)CO)C[C@@H]2C)cc1,2140 nM
20,Cc1ccccc1-c1ccc(CN(C)C[C@@H]2Oc3cc(C#C[C@@H](C)O)ccc3S(=O)(=O)N([C@@H](C)CO)C[C@@H]2C)cc1,1160 nM

# Test system: not listed separately
# Experiment: as above
# Details: Vaccinia virus infected cells, plate reader read-out; at 1 µM (top of the series)
row,Compound,"activity change, negative = inhibition"
1,CO[C@H]1CN(C)C(=O)c2ccc(NC(=O)c3ccc(F)cc3)cc2OC[C@H](C)N(C(=O)c2ccc(F)cc2)C[C@@H]1C,0% (inactive)
2,C[C@H](O)C#Cc1ccc2c(c1)O[C@@H](CN(C)Cc1ccc(-c3ccccc3)cc1)[C@H](C)CN([C@@H](C)CO)S2(=O)=O,6% (inactive)

# Same assay, conditions: Vaccinia virus infected cells, plate reader read-out; at 10 µM (top of the series)
row,Compound,"activity change, negative = inhibition"
1,CNC[C@@H]1Oc2cc(Br)ccc2S(=O)(=O)N([C@@H](C)CO)C[C@@H]1C,-1% (inactive)
2,C[C@H](O)C#Cc1ccc2c(c1)O[C@@H](CN(C)Cc1ccc(-c3ccccc3)cc1)[C@@H](C)CN([C@@H](C)CO)S2(=O)=O,-4% (inactive)
3,C[C@H](O)C#Cc1ccc2c(c1)O[C@@H](CN(C)Cc1ccc(-c3ccccc3)cc1)[C@@H](C)CN([C@H](C)CO)S2(=O)=O,1% (inactive)
4,C[C@H]1CN([C@@H](C)CO)S(=O)(=O)c2ccc(Br)cc2O[C@H]1CN(C)Cc1ccc(-c2ccccc2)cc1,-19% (inactive)
5,C[C@@H](O)C#Cc1ccc2c(c1)O[C@@H](CN(C)C(=O)c1ccc(-c3ccccc3)cc1)[C@@H](C)CN([C@@H](C)CO)S2(=O)=O,-22% (inactive)
6,C[C@@H](O)C#Cc1ccc2c(c1)O[C@@H](CN(C)S(=O)(=O)c1ccc(-c3ccccc3)cc1)[C@@H](C)CN([C@@H](C)CO)S2(=O)=O,-14% (inactive)
